Data: patent EP4813463A2, “TYK2 INHIBITORS AND COMPOSITIONS AND METHODS THEREOF” (Lynk Pharmaceuticals Co. Ltd., priority 2023, dated 2024)
Read-outs that look alike come from different tables or passages of the source.

Key:
IFNa pSTAT1 = assay: Phosphorylation of STAT1 inhibition in HMC3 cells by Jess; type: cell-based; settings: Homo sapiens; HMC3 microglia cells, 50ng/mL hINFα 1 hour, Jess western; read-out: Jess_HMC3 IC50 (IFNa pSTAT1)
Method: Seeding HMC3 cells into 12-well plate and incubate overnight. Pre-stimulation with recombinant human IFNα (Sino biological, H08Y), treat cells with compound with different concentration for 1hr. After compound treatment, stimulate HMC3 cells with 50ng/mL hINFα for another 1 hour (for CCF-STTG1 cells IFNα induction time is 30 mins). And then wash cells with DPBS once gently and lyse cells with pre-cooled RIPA buffer (Sigma, R0278-500ML) for 30min on ice to harvest cells. Centrifuge cell lysate for 20 mins at 12000rpm with freezer centrifuge (Thermo Scientific, Heraeus Fresco 21) to extract protein. Prepare samples with Jess Simple Wes kit (SM-WO04) and then run western blot on Jess simple western system (Protein simple, JS-4631). Collect data and analyzed with GraphPad Prism.

Caco-2 cell permeability = type: in vitro ADME; settings: human, Caco-2, 10.0 µM, no p-gp inhibitor
Method: Compounds permeability was evaluated using Caco-2 cell lines. HBSS buffer was used as transfer buffer. Appropriate dosing and receiver solutions were applied to the donor and receiver chambers to initiate the transport assay in apical to basolateral (A to B) or basolateral to apical (B to A) directions. Compounds were tested at 10.0 µM in the absence of p-gp inhibitor bidirectionally in duplicates. After incubation at 37°C for 90 mins, donor and receiver samples were analyzed by LC-MS/MS. The intestinal absorption potential was assessed using Papp value and efflux ratio.

[1] = Microsomal metabolic stability assay; type: in vitro ADME; settings: human, liver microsomes, 0.5 mg/mL microsomal protein, 1 µM test article, 2 mM NADPH; for half-life at 1 µM: read-out: Human LM T1/2; for microsomal CLint at 1 µM: read-out: Human LM Clint
Method in brief: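 Test or control compound (1 µM) incubated with microsomes (0.5 mg/mL protein) in 100 mM potassium phosphate pH 7.4, 1.0 mM EDTA at 37°C, started with NADPH regenerating system (2 mM NADPH). Sampled at 0, 5, 15, 30, 45 min, acetonitrile-quenched, LC/MS/MS. T1/2 from ln %remaining vs time slope; CLint = 0.693/T1/2 per mg protein/mL.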

JAK1 = molecular target: T1, JAK1 (Homo sapiens, UniProt P23458); assay: JAK1 kinase activity, microfluidic assay (Caliper EZ Reader II, FAM labeled peptide substrate); type: biochemical; settings: JAK1 10 nM, 1 mM ATP
T1 construct: purchased Carna Biosciences
Method: Testing for JAK1, JAK2 and TYK2 Kinase Activities
JAK activity was determined in the reaction buffer 50 mM HEPES, 0.01% Brij35, 10 mM MgCl2, 2 mM DTT by a microfluidic assay. The phosphorylation of a FAM labeled peptide substrate was monitored in the Caliper EZ Reader II (Perkin Elmer). The assay condition for each batch of enzyme (Carna Biosciences) was optimized to obtain 10% conversion rate of peptide substrate.
The test compounds were dissolved in DMSO to a stock concentration of 10 mM. Three-fold serially diluted compounds with top concentration of 5 µM were pre-incubated with JAK1, JAK2 or TYK2 for 10 min at ambient temperature. The final DMSO concentration of assay mixture was 1%. […] The reaction was stopped by adding 50 mM EDTA.
And the well without compound but with equivalent DMSO was defined as no inhibition. The percent inhibition was calculated by the following formula: % Inhibition = (Conversion%_max−Conversion%_sample)/(Conversion%_max−Conversion%_min) × 100 [formula] wherein • Conversion%_ max = the conversion rate in the positive well without addition of compound • Conversion%_ sample = the conversion rate of test compounds • Conversion%_ min = the conversion rate in the well without addition of enzyme
The dose-response (percent inhibition) curve was plotted and IC50 values were determined by GraphPad software. The IC50 values of tested compounds were list in Table 3. Table 3. JAK1, JAK2 and TYK2 IC50 Values of Illustrative Compounds

pSTAT1 = assay: Phosphorylation inhibition of STAT in human whole blood (IFN-alpha stimulated, flow cytometry); type: cell-based; settings: T-cell, 20 min, IFN-alpha stimulation 20 mins, CD3 T cells, read-out: pSTAT1 inhibition in hWB (IC50)
Method in brief: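 Fresh human whole blood stimulated 20 min with human universal type I IFN-alpha, then fixed, permeabilised and stained for CD3 and pSTAT1 (Y701). pSTAT1 in T cells read by flow cytometry; IC50 from 4-parameter logistic fit.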

[2] = read-out: Efflux Ratio: Papp(B-A)/Papp(A-B)

T1 sequence (P23458 875-1153 limits assumed): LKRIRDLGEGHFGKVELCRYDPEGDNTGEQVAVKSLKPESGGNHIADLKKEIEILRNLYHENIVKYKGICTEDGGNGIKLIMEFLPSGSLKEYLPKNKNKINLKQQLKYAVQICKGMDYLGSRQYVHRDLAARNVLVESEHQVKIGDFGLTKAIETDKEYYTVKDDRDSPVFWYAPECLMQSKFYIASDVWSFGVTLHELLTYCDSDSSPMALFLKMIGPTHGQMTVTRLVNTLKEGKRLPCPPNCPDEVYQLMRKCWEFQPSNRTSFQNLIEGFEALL

COC(=O)c1cnc(NC(=O)[C@@H]2C[C@@H]2F)cc1Nc1nn(C)c2ccc(C(O)C(F)(F)F)c(OC)c12 (single isomer, unassigned) [Example 122A, Methyl 6-((1S,2S)-2-fluorocyclopropane-1-carboxamido)-4-((4-methoxy-1-methyl-5-((S*)-2,2,2-trifluoro-1-hydroxyethyl)-1H-indazol-3-yl)amino) nicotinate]
IC50 (IFNa pSTAT1): 0.239 nM
Papp A→B at 1.5 h, 10 µM (Caco-2 cell permeability; 90 mins, A to B): 27.4 ×10⁻⁶ cm/s
Papp B→A at 1.5 h, 10 µM (Caco-2 cell permeability; 90 mins, B to A): 45.3 ×10⁻⁶ cm/s
efflux ratio at 1.5 h, 10 µM (Caco-2 cell permeability; [2]): 1.65
half-life at 1 µM ([1]; pH 7.4): 1.49 h
microsomal CLint at 1 µM [1]: 15.5 µL/min/mg

[2H]C([2H])([2H])NC(=O)c1cnc(NC(=O)C2CC2)cc1Nc1cnn2ccc([C@H](O)C(F)(F)F)c(OC)c12 [Example 7A, (S)-6-(cyclopropanecarboxamido)-4-((4-methoxy-5-(2,2,2-trifluoro-1-hydroxyethyl)pyrazolo[1,5-a]pyridin-3-yl)amino)-N-(methyl-d3)nicotinamide]
IC50 (JAK1): > 20000 nM
IC50 (IFNa pSTAT1): 1.04 nM
microsomal CLint at 1 µM ([1]; pH 7.4): 15.6 µL/min/mg
half-life at 1 µM ([1]; pH 7.4): 1.48 h
IC50 (pSTAT1): 31.1 nM

[2H]C([2H])([2H])NC(=O)c1cnc(NC(=O)C2CC2)cc1Nc1cnn2ccc([C@@H](O)C(F)(F)F)c(OC)c12 [Example 7B, (R)-6-(cyclopropanecarboxamido)-4-((4-methoxy-5-(2,2,2-trifluoro-1-hydroxyethyl)pyrazolo[1,5-a]pyridin-3-yl)amino)-N-(methyl-d3)nicotinamide]
IC50 (JAK1): > 20000 nM
microsomal CLint at 1 µM ([1]; pH 7.4): 10.8 µL/min/mg
half-life at 1 µM ([1]; pH 7.4): 2.14 h
IC50 (pSTAT1): 1000 nM

[2H]C([2H])([2H])NC(=O)c1cnc(Nc2ccn(C)n2)cc1Nc1cnn2ccc([C@H](O)C(F)(F)F)c(OC)c12 [Example 21, (S)-4-((4-methoxy-5-(2,2,2-trifluoro-1-hydroxyethyl)pyrazolo[1,5-a]pyridin-3-yl)amino)-N-(methyl-d3)-6-((1-methyl-1H-pyrazol-3-yl)amino)nicotinamide]
IC50 (JAK1): > 20000 nM
Papp A→B at 90 min, 10 µM (Caco-2 cell permeability; 90 mins, A to B): 0.71 ×10⁻⁶ cm/s
Papp B→A at 90 min, 10 µM (Caco-2 cell permeability; 90 mins, B to A): 47.4 ×10⁻⁶ cm/s
efflux ratio at 90 min, 10 µM (Caco-2 cell permeability; [2]): 67
microsomal CLint at 1 µM ([1]; pH 7.4): 22.8 µL/min/mg
half-life at 1 µM ([1]; pH 7.4): 1.01 h
IC50 (pSTAT1): 22.7 nM

[2H]C([2H])([2H])NC(=O)c1cnc(Nc2cc(C)nc(C)n2)cc1Nc1cnn2ccc([C@H](O)C(F)(F)F)c(OC)c12 [Example 25, (S)-6-((2,6-Dimethylpyrimidin-4-yl)amino)-4-((4-methoxy-5-(2,2,2-trifluoro-1-hydroxyethyl)pyrazolo[1,5-a]pyridin-3-yl)amino)-N-(methyl-d3)nicotinamide]
IC50 (JAK1): > 20000 nM
Papp A→B at 90 min, 10 µM (Caco-2 cell permeability; 90 mins, A to B): 2.57 ×10⁻⁶ cm/s
Papp B→A at 90 min, 10 µM (Caco-2 cell permeability; 90 mins, B to A): 62.3 ×10⁻⁶ cm/s
efflux ratio at 90 min, 10 µM (Caco-2 cell permeability; [2]): 24.2
IC50 (pSTAT1): 30.8 nM

[2H]C([2H])([2H])NC(=O)c1cnc(NC(=O)C2CC2)cc1Nc1cnn2ccc([C@H](OC)C(F)(F)F)c(OC)c12 [Example 27, (S)-6-(cyclopropanecarboxamido)-4-((4-methoxy-5-(2,2,2-trifluoro-1-methoxyethyl)pyrazolo[1,5-a]pyridin-3-yl)amino)-N-(methyl-d3)nicotinamide]
IC50 (JAK1): > 20000 nM
IC50 (pSTAT1): 51.2 nM

[2H]C([2H])([2H])NC(=O)c1nnc(NC(=O)C2CC2)cc1Nc1cnn2ccc([C@H](O)C(F)(F)F)c(OC)c12 [Example 30, (S)-6-(cyclopropanecarboxamido)-4-((4-methoxy-5-(2,2,2-trifluoro-1-hydroxyethyl)pyrazolo[1,5-a]pyridin-3-yl)amino)-N-(methyl-d3)pyridazine-3-carboxamide]
IC50 (JAK1): > 20000 nM
microsomal CLint at 1 µM ([1]; pH 7.4): 17 µL/min/mg
half-life at 1 µM ([1]; pH 7.4): 1.36 h
IC50 (pSTAT1): 52.2 nM

COC(=O)c1cnc(NC(=O)C2CC2)cc1Nc1nn(C)c2ccc([C@H](OC)C(F)(F)F)c(OC)c12 [Example 45B, Methyl (S)-6-(cyclopropanecarboxamido)-4-((4-methoxy-1-methyl-5-(2,2,2-trifluoro-1-methoxyethyl)-1H-indazol-3-yl)amino)nicotinate]
IC50 (IFNa pSTAT1): 4.8 nM
Papp A→B at 90 min, 10 µM (Caco-2 cell permeability; 90 mins, A to B): 7.27 ×10⁻⁶ cm/s
Papp B→A at 90 min, 10 µM (Caco-2 cell permeability; 90 mins, B to A): 5.65 ×10⁻⁶ cm/s
efflux ratio at 90 min, 10 µM (Caco-2 cell permeability; [2]): 0.78
microsomal CLint at 1 µM ([1]; pH 7.4): 18.4 µL/min/mg
half-life at 1 µM ([1]; pH 7.4): 1.26 h

COC(=O)c1cnc(NC(=O)C2CC2)cc1Nc1nn(C)c2ccc([C@H](O)C(F)(F)F)c(OC)c12 [Example 48A, Methyl (S)-6-(cyclopropanecarboxamido)-4-((4-methoxy-1-methyl-5-(2,2,2-trifluoro-1-hydroxyethyl)-1H-indazol-3-yl)amino)nicotinate]
IC50 (JAK1): > 5000 nM
IC50 (IFNa pSTAT1): 1.03 nM
Papp A→B at 90 min, 10 µM (Caco-2 cell permeability; 90 mins, A to B): 29.9 ×10⁻⁶ cm/s
Papp B→A at 90 min, 10 µM (Caco-2 cell permeability; 90 mins, B to A): 29 ×10⁻⁶ cm/s
efflux ratio at 90 min, 10 µM (Caco-2 cell permeability; [2]): 0.97
IC50 (pSTAT1): 29.1 nM

[2H]C([2H])([2H])NC(=O)c1cnc(NC(=O)C2CC2)cc1Nc1nn(C)c2ccc([C@H](O)C(F)(F)F)c(OC)c12 [Example 49A, (S)-6-(cyclopropanecarboxamido)-4-((4-methoxy-1-methyl-5-(2,2,2-trifluoro-1-hydroxyethyl)-1H-indazol-3-yl)amino)-N-(methyl-d3)nicotinamide]
IC50 (JAK1): > 5000 nM
IC50 (IFNa pSTAT1): 0.084 nM
Papp A→B at 90 min, 10 µM (Caco-2 cell permeability; 90 mins, A to B): 1.32 ×10⁻⁶ cm/s
Papp B→A at 90 min, 10 µM (Caco-2 cell permeability; 90 mins, B to A): 66.6 ×10⁻⁶ cm/s
efflux ratio at 90 min, 10 µM (Caco-2 cell permeability; [2]): 50.3
microsomal CLint at 1 µM ([1]; pH 7.4): 19.3 µL/min/mg
half-life at 1 µM ([1]; pH 7.4): 1.19 h
IC50 (pSTAT1): 10.5 nM

[2H]C([2H])([2H])O[C@@H](c1ccc2c(c(Nc3cc(NC(=O)C4CC4)ncc3C(=O)OC)nn2C)c1OC)C(F)(F)F [Example 50B, Methyl (S)-6-(cyclopropanecarboxamido)-4-((4-methoxy-1-methyl-5-(2,2,2-trifluoro-1-(methoxy-d3)ethyl)-1H-indazol-3-yl)amino)nicotinate]
IC50 (JAK1): > 5000 nM
IC50 (IFNa pSTAT1): 9.3 nM
microsomal CLint at 1 µM ([1]; pH 7.4): 10.9 µL/min/mg
half-life at 1 µM ([1]; pH 7.4): 2.11 h
IC50 (pSTAT1): 56.5 nM

[2H]C([2H])([2H])NC(=O)c1cnc(NC(=O)C2CC2)cc1Nc1nn(C)c2ccc([C@H](OC([2H])([2H])[2H])C(F)(F)F)c(OC)c12 [Example 55A, (S)-6-(cyclopropanecarboxamido)-4-((4-methoxy-1-methyl-5-(2,2,2-trifluoro-1-(methoxy-d3)ethyl)-1H-indazol-3-yl)amino)-N-(methyl-d3)nicotinamide]
IC50 (JAK1): > 5000 nM
IC50 (pSTAT1): 24.8 nM
